Source: patent US10266545B2, “Coumarin derivative as antiviral agent, pharmaceutical composition thereof, its preparation and use” (I-NOVA MEDICINSKA ISTRAZIVANJA D.O.O., priority 2016, dated 2019)

Tested on: HIV-1
Test: Microtiter infectivity assay: protection of MT-4 cells from cytopathic effect of HIV-1 (MTT)
Assay type: cell-based, human immunodeficiency virus 1 (HIV-1) subtype B
Settings: for IC50: Human immunodeficiency virus 1, MT4, inhibits 50% viral replication; for Survival (% protection): MT-4 cells infected with HIV-1; for SI = CC50/IC50: selectivity index, MT-4 cells, MTT assay
Experimental: The first study of antiviral activity of compound 1 and the control compound 2 was performed on example of its influence on replication of human immunodeficiency virus 1 (HIV-1) by microtiter infectivity assay in cell culture and by evaluation of concentration of compound 1 or 2, which inhibits virus replication by 50% (IC50) as well as by selectivity index (SI).
The cell line used in this study was also the MT-4 cell line as described above.
A microplate assay of infectivity in cell culture, based on consideration of a cytopathic effect of the virus was described in the literature, see reference 8. At least 4 different concentrations: 10×MNC, MNC^−1, MNC^−2, and MNC^−3 were used.
In each trial, the following controls were set: • (i) cell control—only cells in culture medium and not infected with the virus; and • (ii) viral control—one column to cells infected with the virus were added only medium (200 μl) without the test compound 1 or the control compound 2.
The activity of compound 1 or control compound 2 against the cytopathic effect of HIV-1 was expressed as percentage (%) protection (survival) of the cells defined by the following formula:
[formula] wherein: • ODVS=absorption of cells infected and treated with compound 1 or 2 • ODVC=absorption of the virus-infected cells (virus control without compound 1 or 2), and • ODCC=absorption of uninfected cells (cell control)
The inhibitory concentration 50% (IC50) was defined as the concentration of test compound 1 or control compound 2, expressed in mM, which inhibits 50% viral replication. IC50 was determined directly from the curve “dose (concentration)—response (anti-HIV effect)”. The IC50 was expressed as percentage (%) of: • (i) cell viability which was obtained by the MTT assay; or • (ii) percentage (%) inhibition of enzyme reverse transcriptase (RT) activity.
On the basic of the data about CC50 and IC50 for the test substance 1 or control substance 2, the selectivity index (SI) value was estimated.
The compounds 1 or 2 were dissolved in dimethyl sulfoxide (DMSO; Sigma-Aldrich, USA) to a concentration of 1 mol/l (1 M) and after diluted in cell growth medium RPMI 1640 with 2% heat inactivated fetal bovine serum (FBS; Sigma-Aldrich, USA). All further solutions of compounds 1 or 2 were prepared ex tempore.
MT-4 cell line was not infected with HIV-1 and was used as a classic model for reproduction of acute infection with HIV-1. The cells were cultivated in RPMI 1640 growth medium supplemented with 15% fetal bovine serum (FBS; Sigma-Aldrich, USA), 100 U/ml penicillin G sodium (Sigma-Aldrich, USA), and 100 μg/ml streptomycin sulphate (Sigma-Aldrich, USA).
HIV-1 culture fluid was chronically infected and producing HIV-1 subtype B cell line H9/HTLV III B. The culture fluid was centrifuged and collected as a virus stock. The latter, used in the experiments, was of predetermined infectivity of 2·10^6 infectious virions/ml according to the microtiter infectivity assay based on the cytopathic effect of HIV, through ingestion of MTT, containing protein 24 antigen (p24) and enzyme reverse transcriptase (RT).
After counting the cells, they were resuspended in growth medium at a concentration of 6-8·10^4 cells/100 μl. Followed screening of cell suspensions (100 μl/well of that above) into sterile 96-well plates pretreated with poly-L-lysine (PLL). Since the final volume of the culture medium in each well was 200 μl, additional 100 μl of 10% FBS (containing no cells) was added. At the end of rows and columns were not seeded cells, but only culture medium without FBS.
After 24 h, the supernatant was decanted and added in 50 μl HIV-1 in dilution 10^−1. One or two columns were not infected, acting as the control cells. The plate was placed in an incubator at 37° C. and 5% content of CO2, for 1 h. The virus was then removed and in one or two columns of infected cells were added 200 μl medium containing the appropriate concentration of the test substance 1 or the control substance 2. […]

[1] = MT-4 cells infected with HIV-1, MTT assay

Row | Structure (SMILES) | IC50 [1] [nM] | Survival (% protection) (concentration 0.000001 mM) [%] | Survival (% protection) (concentration 0.00001 mM) [%] | Survival (% protection) (concentration 0.0001 mM) [%] | Survival (% protection) (concentration 0.001 mM) [%] | Survival (% protection) (concentration 0.005 mM) [%] | Survival (% protection) (concentration 0.01 mM (MNC)) [%] | SI = CC50/IC50 | % protection of the MT-4 cells in MNC (Table 3, MT-4 cells infected with HIV-1, MTT assay, at MNC) [%]
1 | O=c1oc2cc(O)c(O)cc2c(O)c1-c1coc2c1c(=O)oc1cc(O)c(O)cc12 [Compound 2, 7,8-dihydroxy-3-(4,6,7-trihydroxy-2-oxo-2H-chromen-3-yl)-4H-furo[3,2-c]chromen-4-one, reference compound] | 5000 | 0 | 0 | 0 | 25 | 50 | 55 | 2 · 10^3 | –
2 | O=c1oc2cc(O)cc(O)c2c(O)c1-c1coc2c1c(=O)oc1cc(O)cc(O)c12 [Compound 1, 7,9-dihydroxy-3-(4,5,7-trihydroxy-2-oxo-2H-chromene-3-yl)-4H-furo[3,2-c]chromen-4-one] | 10 | 0 | 50 | 55 | 60 | 75 | 92 | 1000 · 10^3 | 100
